Assay results from publication PMC12261228 (ACS Pharmacology & Translational Science, 2025).
Read-outs that look alike come from different tables or passages of the source.

Columns and labels:
[1] = system: HCT116p53–/–; experiment: MTS cytotoxicity assay, 72 h; type: cell-based; conditions: read-out: IC50 HCT116p53–/–
[2] = system: A549; experiment: MTS cytotoxicity assay, 72 h; type: cell-based; conditions: Homo sapiens, Fig. S22
Description: Cell suspensions were prepared and diluted according to the particular cell type and the expected target cell density (500 – 4,000 cells/well). The cells (30 μL/well) were seeded to 384-well clear Corning plates by MultiDrop Combi (Thermo Fisher Scientific, USA). After 24 h the cells were treated with tested compounds as well as with vehicle (DMSO) and high controls (2.67 μM of Actinomycin D and 100 μM Mitomycin C) using contact-free acoustic liquid handler ECHO 555 (Labcyte, USA). Compounds were analyzed at a concentration range from 0.012 μM to 50 μM. Treated cells were incubated at 37 °C in a 5% CO2 atmosphere of a humidified incubator for 72 h. At the end of the incubation period, aliquots of the MTS (Promega) solution prepared according to manufacturer's instructions were added to cells (https://worldwide.promega.com/resources/protocols/technical-bulletins/0/celltiter-96-aqueous-nonradioactive-cell-proliferation-assay-protocol/). After 1 – 4 h of the incubation period, the optical density (OD) at 490 nm was measured on a multimode plate reader EnVision (PerkinElmer, USA). The experiments were performed in technical duplicates and at least three biological replicates. […] The assay quality was monitored by determining the Z′-factor for each 384-well plate. The resistance index (RI), representing the reduction in compound activity on resistant cell lines, was calculated as RI = (IC50 of resistant cell lines, CEM-DNR, K562-TAX)/(IC50 of nonresistant counterparts, CCRF-CEM, K562). Similarly, the selectivity index (SI), indicating preferential cytotoxicity toward tumor cell lines, was calculated as SI = (mean IC50 of nontumor cell lines, BJ and MRC5)/(mean IC50 of cancer cell lines without resistant variants, CCRF-CEM, K562, HCT116, HCT116p53–/–, U2OS).

[3] = system: K562; experiment: MTS cytotoxicity assay, 72 h; type: cell-based; conditions: Homo sapiens, K562, 72 h, read-out: IC50 K562
[4] = system: U2OS; experiment: MTS cytotoxicity assay, 72 h; type: cell-based, human; conditions: Homo sapiens, U2OS, 72 h
[5] = system: CCRF-CEM; experiment: MTS cytotoxicity assay, 72 h; type: cell-based
[6] = system: MRC-5; experiment: MTS cytotoxicity assay, 72 h; type: cell-based; conditions: Homo sapiens, MRC5, 72 h, read-out: IC50 MRC-5
[7] = system: BJ; experiment: MTS cytotoxicity assay, 72 h; type: cell-based; conditions: Homo sapiens, read-out: IC50 BJ
[8] = system: HCT116; experiment: MTS cytotoxicity assay, 72 h; type: cell-based; conditions: Homo sapiens, HCT-116, 72 h, read-out: IC50 HCT116
[9] = system: CEM-DNR; experiment: MTS cytotoxicity assay, 72 h; type: cell-based; conditions: Homo sapiens, read-out: IC50 CEM-DNR
[10] = system: K562-TAX; experiment: MTS cytotoxicity assay, 72 h; type: cell-based; conditions: read-out: IC50 K562-TAX
[11] = system: CCRF-CEM lymphoblasts; experiment: FACS analysis of cell cycle, apoptosis, mitosis and polyploidy; conditions: for Mitosis: phospho-Histone (Ser10); for Apoptosis: sub-G0/G1 DNA content, % of positive cells
[12] = system: panel of cell lines
[13] = system: HUVEC; experiment: MTS cytotoxicity assay, 72 h; type: cell-based; conditions: Homo sapiens, 3-day incubation, mean ± SD
[14] = MTS assay, 3-day incubation, mean ± SD
[15] = MTS assay, 3-day incubation, mean ± SD, read-out: IC50 U2OS
[16] = Homo sapiens, CCRF-CEM, 72 h, MTS assay, 3-day incubation, mean ± SD of 3 experiments, read-out: IC50 CCRF-CEM
[17] = normal fibroblasts, MTS assay, 3-day incubation, mean ± SD
[18] = daunorubicin-resistant, MTS assay, 3-day incubation, mean ± SD
[19] = paclitaxel-resistant, MTS assay, 3-day incubation, mean ± SD
[20] = read-out: IC50 U2OS, MTS assay, 3-day incubation, mean ± SD
[21] = Homo sapiens, CCRF-CEM, 72 h, read-out: IC50 CCRF-CEM, MTS assay, 3-day incubation, mean ± SD of 3 experiments

SMILES | IC50 [1, 14] [µM] | IC50 [2] [µM] | IC50 [3, 14] [µM] | IC50 [4, 15] [µM] | IC50 [5, 16] [µM] | IC50 [6, 17] [µM] | IC50 [7, 17] [µM] | IC50 [8, 14] [µM] | IC50 [1] [µM] | G0/G1 ([11]; 1×IC50, 24 h) [%] | G2/M ([11]; 1×IC50, 24 h) [%] | Polyploid cells ([11]; 1×IC50, 24 h) [%] | S ([11]; 1×IC50, 24 h) [%] | Mitosis ([11]; 1×IC50, 24 h) [%] | Apoptosis ([11]; 1×IC50, 24 h) [%] | G0/G1 ([11]; 5×IC50, 24 h) [%] | Polyploid cells ([11]; 5×IC50, 24 h) [%] | S ([11]; 5×IC50, 24 h) [%] | Mitosis ([11]; 5×IC50, 24 h) [%] | Apoptosis ([11]; 5×IC50, 24 h) [%] | other results
CC1=CC(C)=[N+]2C1=C(CCC(=O)O)c1c(C)cc(C)n1[B-]2(F)F [B1] | > 50 | > 50 | > 50 | > 50 | > 50 | > 50 | > 50 | > 50 |  |  |  |  |  |  |  |  |  |  |  |  | 
CC1=CC(C)=[N+]2C1=C(CCCCCCCCCCC(=O)O)c1c(C)cc(C)n1[B-]2(F)F [B2] | > 50 | > 50 | > 50 | > 50 | > 50 | > 50 | > 50 | > 50 |  |  |  |  |  |  |  |  |  |  |  |  | 
CC1=CC(C)=[N+]2C1=C(CCCCBr)c1c(C)cc(C)n1[B-]2(F)F [B3, difluoro-1,3,5,7-tetramethyl-4-bora-3a,4a-diaza-s-indacene-8-yl)butyl bromide] | > 50 | > 50 | > 50 | > 50 | > 50 | > 50 | > 50 | > 50 |  |  |  |  |  |  |  |  |  |  |  |  | IC50 [9, 18]: > 50 µM; IC50 [10, 19]: > 50 µM
CC1=CC(C)=[N+]2C1=C(CCCCN)c1c(C)cc(C)n1[B-]2(F)F [B4] | > 50 | > 50 | > 50 | > 50 | 32.9 | > 50 | > 50 | > 50 |  |  |  |  |  |  |  |  |  |  |  |  | IC50 [9, 18]: > 50 µM; IC50 [10, 19]: > 50 µM
CNCCCCC1=C2C(C)=CC(C)=[N+]2[B-](F)(F)n2c(C)cc(C)c21 [B5] | > 50 | > 50 | > 50 | > 50 | 27.8 | > 50 | > 50 | > 50 |  |  |  |  |  |  |  |  |  |  |  |  | IC50 [9, 18]: 36.3 µM; IC50 [10, 19]: 35.8 µM
CC1=CC(C)=[N+]2C1=C(CCCCN(C)C)c1c(C)cc(C)n1[B-]2(F)F [B6] | > 50 | > 50 | > 50 | > 50 | > 50 | > 50 | > 50 | > 50 |  |  |  |  |  |  |  |  |  |  |  |  | IC50 [9, 18]: > 50 µM; IC50 [10, 19]: > 50 µM
COc1cc2c(c(OC)c1OC)-c1ccc(OC)c(=O)cc1[C@@H](NC(=O)CCCCCCCCCCC1=C3C(C)=CC(C)=[N+]3[B-](F)(F)n3c(C)cc(C)c31)CC2 [CB2] |  |  |  |  |  |  |  |  | > 50 | 6.59 | 89.19 | 23.67 | 4.22 | 45.60 | 8.51 | 5.2 | 26.18 | 1.29 | 79.51 | 13.84 | IC50 [3]: 0.19 ± 0.04 µM; IC50 [4, 20]: > 50 µM; IC50 [5, 21]: 0.33 ± 0.005 µM; RI (resistance index) [12]: 3.90; SI (selectivity index) [12]: >1.66; cytotoxic activity across the cell line panel (in words) [12]: selectively killed/affected suspension cell lines; IC50 [6]: > 50 µM; IC50 [7]: > 50 µM; IC50 [8]: > 50 µM; IC50 [9]: 1.45 ± 0.06 µM; IC50 [10]: 0.58 ± 0.035 µM; IC50 [13]: 0.36 ± 0.035 µM
COc1cc2c(c(OC)c1OC)-c1ccc(OC)c(=O)cc1[C@@H](NC(=O)CCCC[N+](C)(C)CCCCC1=C3C(C)=CC(C)=[N+]3[B-](F)(F)n3c(C)cc(C)c31)CC2 [CB3] |  |  |  |  |  |  |  |  | 36.4 ± 5.03 | 2.89 | 79.08 | 26.03 | 18.03 | 58.58 | 16.41 | 7.84 | 26.25 | 8.15 | 57.12 | 20.64 | apoptosis in CCRF-CEM cells ([11]; 1× and 5 × IC50, compared with DMSO): 20%; G2/M ([11]; 5×IC50, 24 h): 84.01%; IC50 [3]: 9.5 ± 2.37 µM; IC50 [4, 20]: > 50 µM; IC50 [5, 21]: 9.33 ± 0.952 µM; RI (resistance index) [12]: >4.79; SI (selectivity index) [12]: >1.83; cytotoxic activity across the cell line panel (in words) [12]: significantly lower; IC50 [6]: > 50 µM; IC50 [7]: > 50 µM; IC50 [8]: 31.6 ± 4.54 µM; IC50 [9]: > 50 µM; IC50 [10]: 40.1 ± 1.07 µM; IC50 [13]: > 50 µM
COc1cc2c(c(OC)c1OC)-c1ccc(OC)c(=O)cc1[C@@H](n1cc(CCCCCCCCC3=C4C(C)=CC(C)=[N+]4[B-](F)(F)n4c(C)cc(C)c43)[n+](C)n1)CC2 [CB8] |  |  |  |  |  |  |  |  | 9.36 ± 0.87 | 8.68 | 80.01 | 23.43 | 11.31 | 5.79 | 11.09 | 9.49 | 20.18 | 3.17 | 13.33 | 3.98 | G2/M ([11]; 5×IC50, 24 h): 87.34%; IC50 [3]: 7.83 ± 0.892 µM; IC50 [4, 20]: 11.9 ± 1.11 µM; IC50 [5, 21]: 7.11 ± 1.14 µM; RI (resistance index) [12]: 0.86; SI (selectivity index) [12]: 3.28; IC50 [6]: 22.1 ± 1.22 µM; IC50 [7]: 36.9 ± 5.68 µM; IC50 [8]: 8.81 ± 1.94 µM; IC50 [9]: 6.53 ± 0.458 µM; IC50 [10]: 6.35 ± 0.335 µM; IC50 [13]: 23.5 ± 1.29 µM
COc1cc(C2=C3C(C)=CC(C)=[N+]3[B-](F)(F)n3c(C)cc(C)c32)ccc1OCc1cn([C@H]2CCc3cc(OC)c(OC)c(OC)c3-c3ccc(OC)c(=O)cc32)n[n+]1C [CB9] |  |  |  |  |  |  |  |  | 8.56 ± 0.365 | 12.83 | 60.07 | 29.32 | 27.11 | 32.84 | 8.93 | 19.56 | 26.30 | 31.53 | 31.00 | 14.27 | G2/M ([11]; 5×IC50, 24 h): 48.91%; IC50 [3]: 7.69 ± 0.45 µM; IC50 [4, 20]: > 50 µM; IC50 [5, 21]: 4.81 ± 0.641 µM; RI (resistance index) [12]: 0.98; SI (selectivity index) [12]: >3.15; IC50 [6]: > 50 µM; IC50 [7]: > 50 µM; IC50 [8]: 8.27 ± 1.43 µM; IC50 [9]: 6.49 ± 0.639 µM; IC50 [10]: 5.78 ± 0.561 µM; IC50 [13]: 40.1 ± 2.93 µM
COc1cc2c(c(OC)c1OC)-c1ccc(NCCCCC3=C4C(C)=CC(C)=[N+]4[B-](F)(F)n4c(C)cc(C)c43)c(=O)cc1[C@@H](NC(C)=O)CC2 [CB10] |  |  |  |  |  |  |  |  | > 50 | 34.04 | 26.65 | 12.43 | 39.32 | 2.86 | 3.87 | 8.21 | 25.51 | 29.17 | 36.02 | 11.26 | G2/M ([11]; 5×IC50, 24 h): 62.62%; IC50 [3]: 10.8 ± 0.431 µM; IC50 [4, 20]: > 50 µM; IC50 [5, 21]: 7.13 µM; IC50 ([5]; read-out: IC50 CCRF-CEM, MTS assay, 3-day incubation, mean ± SD of 3 experiments): 7.11 ± 0.651 µM; RI (resistance index) [12]: 1.45; SI (selectivity index) [12]: >1.63; cytotoxic activity across the cell line panel (in words) [12]: significantly lower; IC50 [6]: > 50 µM; IC50 [7]: > 50 µM; IC50 [8]: 35.8 ± 5.91 µM; IC50 [9]: 11.1 ± 0.959 µM; IC50 [10]: 14.8 ± 2.94 µM; IC50 [13]: 32.3 ± 0.42 µM
